Laboratory results: US8889878B2, “Haloalky-substituted amides as insecticides and acaricides” (Bayer CropScience AG, priority 2009, dated 2014)

Experiments:
[1] = test system: armyworm (Spodoptera frugiperda); assay: Spodoptera frugiperda test (SPODFR spray treatment), Example 15; format: in vivo; conditions: maize leaf discs sprayed, after 7 days
Protocol: Spodoptera frugiperda Test (SPODFR Spray Treatment)
• Solvent: 78.0 parts by weight of acetone • 1.5 parts by weight of dimethylformamide • Emulsifier: 0.5 part by weight of alkylaryl polyglycol ether
To prepare an appropriate active ingredient formulation, 1 part by weight of active ingredient is mixed with the stated amounts of solvent and emulsifier, and the concentrate is diluted with emulsifier-containing water to the desired concentration. Leaf discs from maize (Zea mays) are sprayed with an active ingredient formulation of the desired concentration and, after drying, populated with caterpillars of the armyworm (Spodoptera frugiperda).
After 7 days, the efficacy in % is determined. 100% means that all caterpillars were killed; 0% means that no caterpillars were killed.

[2] = logP by HPLC on reverse-phase column (EEC Directive 79/831 Annex V.A8); format: physicochemical; conditions: for chromatographic logP: reverse-phase C18 HPLC column
Protocol: The logP values reported in the above Tables and Preparation Examples were determined according to EEC Directive 79/831 Annex V.A8 by HPLC (High Performance Liquid Chromatography) on a reverse-phase column (C18). Temperature 43° C.

[3] = HPLC, C18 reverse phase, 43° C., acidic range pH 2.7, calibration with alkan-2-ones
[4] = pH 2.7, HPLC, C18 reverse phase, 43° C., acidic range pH 2.7, calibration with alkan-2-ones

Compound	efficacy in % ([1]; application rate 100 g/ha) [%]	logP ([2]; HPLC-MS)	further results
C#CC(C)(C)NC(=O)c1ccc(/C=C/C(=O)NC(c2cccc(C(F)(F)F)c2)C(F)(F)F)cc1Cl (racemic) [Ia-196]	83	HPLC-MS: logP = 3.64; mass	
N#Cc1cnn(-c2ccc(/C=C/C(=O)NC(c3cccc(C(F)(F)F)c3)C(F)(F)F)cc2Cl)c1 (racemic) [Ia-200]	100	HPLC-MS: logP = 3.83; mass	
O=C(/C=C/c1ccc(C(=O)Nc2ccc(F)cn2)c(Cl)c1)NC(c1cccc(C(F)(F)F)c1)C(F)(F)F (racemic) [Ia-203]	100	HPLC-MS: logP = 3.84; mass	
O=C(/C=C/c1ccc(C(=O)Nc2ccc([N+](=O)[O-])cn2)c(Cl)c1)NC(c1cccc(C(F)(F)F)c1)C(F)(F)F (racemic) [Ia-204]	100	HPLC-MS: logP = 3.95; mass	
N#Cc1ccc(NC(=O)c2ccc(/C=C/C(=O)NC(c3cccc(C(F)(F)F)c3)C(F)(F)F)cc2Cl)nc1 (racemic) [Ia-205]	100	HPLC-MS: logP = 3.72; mass	
O=C(/C=C/c1ccc(-n2cnc(Cl)n2)c(C(F)(F)F)c1)NC(c1cccc(C(F)(F)F)c1)C(F)(F)F (racemic) [Ia-208]	100	HPLC-MS: logP = 4.02; mass	
O=C(/C=C/c1ccc(-n2cncn2)c(Cl)c1)NC(c1ccc(F)c(Cl)c1)C(F)(F)F (racemic) [Ia-209]	83	HPLC-MS: logP = 3.15; mass	
O=C(/C=C/c1ccc(C(=O)Nc2ccc(F)cn2)c(C(F)(F)F)c1)NC(c1cccc(C(F)(F)F)c1)C(F)(F)F (racemic) [Ia-210]	100	HPLC-MS: logP = 3.93; mass	
N#Cc1ccc(NC(=O)c2ccc(/C=C/C(=O)NC(c3cccc(C(F)(F)F)c3)C(F)(F)F)cc2C(F)(F)F)nc1 (racemic) [Ia-211]	100	HPLC-MS: logP = 3.82; mass	
O=C(/C=C/c1ccc(C(=O)Nc2ccc(F)cn2)c(Br)c1)NC(c1cccc(C(F)(F)F)c1)C(F)(F)F (racemic) [Ia-212]	100	HPLC-MS: logP = 3.87; mass	
N#Cc1ccc(NC(=O)c2ccc(/C=C/C(=O)NC(c3cccc(C(F)(F)F)c3)C(F)(F)F)cc2Br)nc1 (racemic) [Ia-214]	100	HPLC-MS: logP = 3.75; mass	
CCOCn1c(C(=O)NC(c2cccc(C(F)(F)F)c2)C(F)(F)F)cc2cc(C(=O)NC3CC3)c(Cl)cc21 (racemic) [Ic-27]	100		logP [2, 3]: HPLC-MS: logP = 3.81; mass
C=CCn1c(C(=O)NC(c2cccc(C(F)(F)F)c2)C(F)(F)F)cc2cc(C(=O)NC3CC3)c(Cl)cc21 (racemic) [Ic-29]	100		logP [2, 3]: HPLC-MS: logP = 3.86; mass
O=C(/C=C/c1ccc(C(=O)NCc2ccccn2)cc1)NC(c1cccc(C(F)(F)F)c1)C(F)(F)F (stereo not drawn) [Ia-7]		HPLC-MS: logP = 2.45; mass	efficacy in % ([1]; application rate 500 g/ha): 83%
N#Cc1cc(/C=C/C(=O)NC(c2cc(Cl)ccc2Cl)C(F)(F)F)ccc1-n1cncn1 (stereo not drawn) [Ia-15]		HPLC-MS: logP = 3.19; mass	efficacy in % ([1]; application rate 500 g/ha): 83%
CC(NC(=O)c1ccc(/C=C/C(=O)NC(c2cccc([N+](=O)[O-])c2)C(F)(F)F)cc1C(F)(F)F)C(F)(F)F (stereo not drawn) [Ia-28]		HPLC-MS: logP = 3.83; mass	efficacy in % ([1]; application rate 500 g/ha): 83%
O=C(/C=C/c1ccc(C(=O)Nc2ncccn2)c(C(F)(F)F)c1)NC(c1cccc(C(F)(F)F)c1)C(F)(F)F (stereo not drawn) [Ia-119]	100	HPLC-MS: logP = 3.11; mass	
O=C(/C=C/c1ccc(C(=O)Nc2ncc(Cl)cn2)c(C(F)(F)F)c1)NC(c1cccc(C(F)(F)F)c1)C(F)(F)F (stereo not drawn) [Ia-137]	100	HPLC-MS: logP = 3.62; mass	
O=C(/C=C/c1ccc(C(=O)Nc2cc(Cl)ccn2)c(Cl)c1)NC(c1cccc(C(F)(F)F)c1)C(F)(F)F (stereo not drawn) [Ia-165]	100	HPLC-MS: logP = 4,23; mass	
CC(C#N)(NC(=O)c1ccc(/C=C/C(=O)NC(c2cccc(C(F)(F)F)c2)C(F)(F)F)cc1C(F)(F)F)C1CC1 (stereo not drawn) [Ia-172]	100	HPLC-MS: logP = 3.74; mass	
CC(NC(=O)c1ccc(/C=C/C(=O)NC(c2cccc(C(F)(F)F)c2)C(F)(F)F)cc1Br)C(F)(F)F (stereo not drawn) [Ia-176]	100	HPLC-MS: logP = 3.78; mass	
C#CC(C)NC(=O)c1ccc(/C=C/C(=O)NC(c2cccc(C(F)(F)F)c2)C(F)(F)F)cc1Br (stereo not drawn) [Ia-178]	100	HPLC-MS: logP = 3.44; mass	
O=C(/C=C/c1ccc(C(=O)Nc2ncccc2Cl)c(Cl)c1)NC(c1cccc(C(F)(F)F)c1)C(F)(F)F (stereo not drawn) [Ia-183]	83	HPLC-MS: logP = 3.44; mass	
O=C(/C=C/c1ccc(C(=O)Nc2cccnn2)c(C(F)(F)F)c1)NC(c1cccc(C(F)(F)F)c1)C(F)(F)F (stereo not drawn) [Ia-225]	100	HPLC-MS: logP = 3.27; mass	

Compound	efficacy in % ([1]; application rate 100 g/ha) [%]	logP ([2]; HPLC-MS)	further results
O=C(/C=C/c1ccc(C(=O)Nc2cnc(Br)cn2)c(C(F)(F)F)c1)NC(c1cccc(C(F)(F)F)c1)C(F)(F)F (stereo not drawn) [Ia-226]	100	HPLC-MS: logP = 4.15; mass	
O=C(/C=C/c1ccc(C(=O)NC2CC2)c(Cl)c1)NC(c1cccc(Cl)c1)C(F)(F)F (stereo not drawn) [Ia-235]		HPLC-MS: logP = 3.03; mass	efficacy in % ([1]; application rate 500 g/ha): 83%
CC(=O)NCc1ccc(/C=C/C(=O)NC(c2cccc(C(F)(F)F)c2)C(F)(F)F)cc1C(F)(F)F (stereo not drawn) [Ia-247]	100	HPLC-MS: logP = 3.24; mass	
CC(=O)NCc1ccc(/C=C/C(=O)NC(c2cccc(C(F)(F)F)c2)C(F)(F)F)cc1Cl (stereo not drawn) [Ia-248]	100	HPLC-MS: logP = 3.06; mass	
CC(C)C(=O)N(Cc1ccccn1)Cc1ccc(/C=C/C(=O)NC(c2cccc(C(F)(F)F)c2)C(F)(F)F)cc1F (stereo not drawn) [Ia-253]	100	HPLC-MS: logP = 3.37; mass	
CCN(C(=O)c1ccc(/C=C/C(=O)NC(c2cccc(C(F)(F)F)c2)C(F)(F)F)cc1C(F)(F)F)C1CC1 (stereo not drawn) [Ia-257]	100	HPLC-MS: logP = 3.89; mass	
C=CCC(=O)NCc1ccc2oc(C(=O)NC(c3cccc(C(F)(F)F)c3)C(F)(F)F)cc2c1 (stereo not drawn) [Ic-13]			logP [2, 3]: HPLC-MS: logP = 3.24; mass
CCC(=O)NCc1ccc2oc(C(=O)NC(c3cccc(C(F)(F)F)c3)C(F)(F)F)cc2c1 (stereo not drawn) [Ic-14]			logP [2, 3]: HPLC-MS: logP = 3.09; mass
NC(=O)c1cc2cc(C(=O)NC(c3cccc(C(F)(F)F)c3)C(F)(F)F)oc2cc1F (stereo not drawn) [Ic-16]			logP [2, 3]: HPLC-MS: logP = 2.88; mass
O=C(NC(c1cccc(C(F)(F)F)c1)C(F)(F)F)c1cc2cc(S(=O)(=O)C(F)(F)F)ccc2[nH]1 (stereo not drawn) [Ic-17]			logP [2, 3]: HPLC-MS: logP = 4.19; mass
Cn1c(C(=O)NC(c2cccc(C(F)(F)F)c2)C(F)(F)F)cc2cc(Cl)c(C(=O)NC3CC3)cc21 (stereo not drawn) [Ic-48]			logP [2, 3]: HPLC-MS: logP = 3.33; mass
O=C(/C=C/c1ccc(C(=O)NC2CC2)c(C(F)(F)F)c1)NC(c1cccc(F)c1)C(F)F (stereo not drawn) [Id-2]			logP [2, 3]: HPLC-MS: logP = 2.68; mass
O=C(/C=C/c1ccc(C(=O)NC2CC2)c(C(F)(F)F)c1)NC(c1cccc(Cl)c1)C(F)F (stereo not drawn) [Id-3]			logP [2, 3]: HPLC-MS: logP = 2.92; mass
CC(NC(=O)CC1CC1)c1ccc(/C=C/C(=O)NC(c2cccc(C(F)(F)F)c2)C(F)(F)F)nc1 (stereo not drawn) [If-3]	100		
O=C(NCc1ccccc1)c1ccc(Br)cc1C(F)(F)F [N-Benzyl-4-bromo-2-(trifluoromethyl)benzamide]			chromatographic logP [2, 4]: 2.89
O=C(NC1CC1)c1cnc(I)cc1C(F)(F)F [N-Cyclopropyl-6-iodo-4-(trifluoromethyl)nicotinamide]			chromatographic logP [2, 4]: 1.92
CCC(=O)NC(C)c1ccc(Br)cc1F (stereo not drawn) [N-[1-(4-Bromo-2-fluorophenyl)ethyl]propanamide]			chromatographic logP [2, 4]: 2.19
FC(F)(F)c1cc(Br)ccc1CNc1ccccn1 [N-[4-Bromo-2-(trifluoromethyl)benzyl]pyridin-2-amine]			chromatographic logP [2, 4]: 1.57
C=CC(=O)NC(c1cccc(C(F)(F)F)c1)C(F)(F)F (stereo not drawn) [N-{2,2,2-Trifluoro-1-[3-(trifluoromethyl)phenyl]ethyl}acrylamide]			chromatographic logP [2, 4]: 2.75
CC(C)(C)OC(=O)c1ccc(C=O)c(O)c1 [tert-Butyl 4-formyl-3-hydroxybenzoate]			chromatographic logP [2, 4]: 3.11
CC(C)(C)OC(=O)NCc1ccc(Br)cc1C(F)(F)F [tert-Butyl [4-bromo-2-(trifluoromethyl)benzyl]carbamate]			chromatographic logP [2, 4]: 4.13
CC(C)(C)OC(=O)NCc1ccc(/C=C/C(=O)NC(c2cccc(C(F)(F)F)c2)C(F)(F)F)cc1C(F)(F)F (stereo not drawn) [tert-Butyl {4-[1E)-3-oxo-3-({2,2,2-trifluoro-1-[3-(trifluoromethyl)phenyl]ethyl}amino)prop-1-en-1-yl]-2-(trifluoromethyl)benzyl}carbamate]			chromatographic logP [2, 3]: 4.4
CC(C)(C)OC(=O)NC1CCc2cc(/C=C/C(=O)NC(c3cccc(C(F)(F)F)c3)C(F)(F)F)ccc21 (stereo not drawn) [tert-Butyl {5-[(1E)-3-oxo-3-({2,2,2-trifluoro-1-[3-(trifluoromethyl)phenyl]ethyl}amino)prop-1-en-1-yl]-2,3-dihydro-1H-inden-1-yl}carbamate]			chromatographic logP [2, 4]: 4.44
NC(c1cc(F)cc(C(F)(F)F)c1)C(F)(F)F (stereo not drawn) [α,3-Bis(trifluoromethyl)-5-fluorobenzenemethanamine]			chromatographic logP [2, 4]: 2.51
